US6355799B1, “Substituted benzene compounds, process for their preparation, and herbicidal and defoliant compositions containing them” (ISK Americas Incorporated, priority 1997, dated 2002)

How the values were obtained:
Type in all cases: in vivo
[1] = tested on: redroot pigweed (Amaranthus retroflexus, AMARE); experiment: Pre-emerge test, greenhouse herbicide activity screening; details: rated 14 days after application, 0 = no damage, 100 = complete death
Summary of the method: (§1)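 Sandy loam pots; pre-emerge: sown 1 d pre-spray, surface-watered after, then bottom-watered. Post-emerge: sown 8–21 d before, 2–3 leaf stage, + 0.25% v/v NIS, bottom-watered. Acetone, 187 l/ha track spray, 15–1000 g ai/ha. 0–100 injury score, day 14.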

[2] = tested on: barnyardgrass (Echinochloa crus-galli, ECHCG); experiment: as above; details: rated 14 days after application, 0 = no damage, 100 = complete death
Summary of the method: (§2)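 Herbicidal damage is scored 0 (none) to 100 (complete plant death) two weeks after a simulated field spray. Rates span 15–1000 g ai/ha, delivered in acetone at 187 l/ha. For post-emergence treatments, plants have 2–3 leaves and the spray carries 0.25% v/v non-ionic surfactant.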

[3] = tested on: common ragweed (Ambrosia artemisizfolia L., AMBEL); experiment: as above; details: rated 14 days after application, 0 = no damage, 100 = complete death
Summary of the method: as §2

[4] = tested on: green foxtail (Setaria viridis, SETVI); experiment: as above; details: rated 14 days after application, 0 = no damage, 100 = complete death
Summary of the method: as §2

[5] = tested on: ivyleaf morningglory (Ipomoea hederacea, IPOHE); experiment: as above; details: rated 14 days after application, 0 = no damage, 100 = complete death
Summary of the method: as §2

[6] = tested on: johnsongrass (Sorghum halepense, SORHA); experiment: as above; details: rated 14 days after application, 0 = no damage, 100 = complete death
Summary of the method: as §2

[7] = tested on: lambsquarters (Chenopodium album, CHEAL); experiment: as above; details: rated 14 days after application, 0 = no damage, 100 = complete death
Summary of the method: as §2

[8] = tested on: large crabgrass (Digitaria sanguinalis, DIGSA); experiment: as above; details: rated 14 days after application, 0 = no damage, 100 = complete death
Summary of the method: as §2

[9] = tested on: sicklepod (Cassia obtusifolia, CASOB); experiment: as above; details: rated 14 days after application, 0 = no damage, 100 = complete death
Summary of the method: as §2

[10] = tested on: velvetleaf (Abutilon theophrasti, ABUTH); experiment: as above; details: rated 14 days after application, 0 = no damage, 100 = complete death
Summary of the method: as §2

[11] = tested on: field corn (Zea mays L., var. Dekalb 535, CORN); experiment: Pre-emerge test, crop safety; details: rated 14 days after application, 0 = no damage, 100 = complete death
Summary of the method: as §1

[12] = tested on: upland rice (Oryza sp., var. Tebonnet, RICE); experiment: Pre-emerge test, crop safety; details: rated 14 days after application, 0 = no damage, 100 = complete death
Summary of the method: as §1

[13] = tested on: barnyardgrass (Echinochloa crus-galli, ECHCG); experiment: Post-emerge test, greenhouse herbicide activity screening; details: post-emerge, 14 days after application, rating scale 0-100
Summary of the method: (§3)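 Compounds in acetone were track-sprayed at 15–1000 g ai/ha: pre-emergence onto soil sown the previous day, then top-watered to incorporate and later bottom-watered; post-emergence onto 2–3 leaf plants with 0.25% v/v surfactant, bottom-watered only. Ratings on a 0–100 phytotoxicity scale were taken at day 14.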

[14] = tested on: common ragweed (Ambrosia artemisizfolia L., AMBEL); experiment: as above; details: post-emerge, 14 days after application, rating scale 0-100
Summary of the method: as §3

[15] = tested on: green foxtail (Setaria viridis, SETVI); experiment: as above; details: post-emerge, 14 days after application, rating scale 0-100
Summary of the method: as §3

[16] = tested on: ivyleaf morningglory (Ipomoea hederacea, IPOHE); experiment: as above; details: post-emerge, 14 days after application, rating scale 0-100
Summary of the method: as §3

[17] = tested on: johnsongrass (Sorghum halepense, SORHA); experiment: as above; details: post-emerge, 14 days after application, rating scale 0-100
Summary of the method: as §3

[18] = tested on: lambsquarters (Chenopodium album, CHEAL); experiment: as above; details: post-emerge, 14 days after application, rating scale 0-100
Summary of the method: as §3

[19] = tested on: large crabgrass (Digitaria sanguinalis, DIGSA); experiment: as above; details: post-emerge, 14 days after application, rating scale 0-100
Summary of the method: as §3

[20] = tested on: redroot pigweed (Amaranthus retroflexus, AMARE); experiment: as above; details: post-emerge, 14 days after application, rating scale 0-100
Summary of the method: as §3

[21] = tested on: sicklepod (Cassia obtusifolia, CASOB); experiment: as above; details: post-emerge, 14 days after application, rating scale 0-100
Summary of the method: as §3

[22] = tested on: velvetleaf (Abutilon theophrasti, ABUTH); experiment: as above; details: post-emerge, 14 days after application, rating scale 0-100
Summary of the method: as §3

[23] = tested on: field corn (Zea mays L., var. Dekalb 535, CORN); experiment: Post-emerge test, crop safety; details: post-emerge, 14 days after application, rating scale 0-100
Summary of the method: as §2

[24] = tested on: upland rice (Oryza sp., var. Tebonnet, RICE); experiment: Post-emerge test, crop safety; details: post-emerge, 14 days after application, rating scale 0-100
Summary of the method: as §2

## COc1c(Cl)cc(F)c(-n2c(=O)cc(C(F)(F)F)n(C)c2=O)c1N(C(=O)c1ccc([N+](=O)[O-])cc1)C(=O)c1ccc([N+](=O)[O-])cc1 [2-69]
[1]; 63 g ai/ha
  Pre-emerge Herbicidal Activity, phytotoxicity rating (0-100), AMARE: 90
[1]; 250 g ai/ha
  Pre-emerge Herbicidal Activity, phytotoxicity rating (0-100), AMARE: 100
[2]; 63 g ai/ha
  Pre-emerge Herbicidal Activity, phytotoxicity rating (0-100), ECHCG: 0
[2]; 250 g ai/ha
  Pre-emerge Herbicidal Activity, phytotoxicity rating (0-100), ECHCG: 10
[3]; 63 g ai/ha
  Pre-emerge Herbicidal Activity, phytotoxicity rating (0-100), AMBEL: 50
[3]; 250 g ai/ha
  Pre-emerge Herbicidal Activity, phytotoxicity rating (0-100), AMBEL: 60
[4]; 63 g ai/ha
  Pre-emerge Herbicidal Activity, phytotoxicity rating (0-100), SETVI: 70
[4]; 250 g ai/ha
  Pre-emerge Herbicidal Activity, phytotoxicity rating (0-100), SETVI: 95
[5]; 63 g ai/ha
  Pre-emerge Herbicidal Activity, phytotoxicity rating (0-100), IPOHE: 0
[5]; 250 g ai/ha
  Pre-emerge Herbicidal Activity, phytotoxicity rating (0-100), IPOHE: 40
[6]; 63 g ai/ha
  Pre-emerge Herbicidal Activity, phytotoxicity rating (0-100), SORHA: 0
[6]; 250 g ai/ha
  Pre-emerge Herbicidal Activity, phytotoxicity rating (0-100), SORHA: 30
[7]; 63 g ai/ha
  Pre-emerge Herbicidal Activity, phytotoxicity rating (0-100), CHEAL: 100
[7]; 250 g ai/ha
  Pre-emerge Herbicidal Activity, phytotoxicity rating (0-100), CHEAL: 100
[8]; 63 g ai/ha
  Pre-emerge Herbicidal Activity, phytotoxicity rating (0-100), DIGSA: 20
[8]; 250 g ai/ha
  Pre-emerge Herbicidal Activity, phytotoxicity rating (0-100), DIGSA: 90
[9]; 63 g ai/ha
  Pre-emerge Herbicidal Activity, phytotoxicity rating (0-100), CASOB: 0
[9]; 250 g ai/ha
  Pre-emerge Herbicidal Activity, phytotoxicity rating (0-100), CASOB: 80
[10]; 63 g ai/ha
  Pre-emerge Herbicidal Activity, phytotoxicity rating (0-100), ABUTH: 100
[10]; 250 g ai/ha
  Pre-emerge Herbicidal Activity, phytotoxicity rating (0-100), ABUTH: 100
[11]; 63 g ai/ha
  Pre-emerge phytotoxicity rating (0-100), crop damage, CORN: 0
[11]; 250 g ai/ha
  Pre-emerge phytotoxicity rating (0-100), crop damage, CORN: 10
[12]; 63 g ai/ha
  Pre-emerge phytotoxicity rating (0-100), crop damage, RICE: 20
[12]; 250 g ai/ha
  Pre-emerge phytotoxicity rating (0-100), crop damage, RICE: 30
[13]; 63 g ai/ha
  phytotoxicity rating ECHCG: 0
[13]; 250 g ai/ha
  phytotoxicity rating ECHCG: 0
[14]; 63 g ai/ha
  phytotoxicity rating AMBEL: 40
[14]; 250 g ai/ha
  phytotoxicity rating AMBEL: 30
[15]; 63 g ai/ha
  phytotoxicity rating SETVI: 0
[15]; 250 g ai/ha
  phytotoxicity rating SETVI: 0
[16]; 63 g ai/ha
  phytotoxicity rating IPOHE: 50
[16]; 250 g ai/ha
  phytotoxicity rating IPOHE: 40
[17]; 63 g ai/ha
  phytotoxicity rating SORHA: 0
[17]; 250 g ai/ha
  phytotoxicity rating SORHA: 0
[18]; 63 g ai/ha
  phytotoxicity rating CHEAL: 50
[18]; 250 g ai/ha
  phytotoxicity rating CHEAL: 60
[19]; 63 g ai/ha
  phytotoxicity rating DIGSA: 0
[19]; 250 g ai/ha
  phytotoxicity rating DIGSA: 0
[20]; 63 g ai/ha
  phytotoxicity rating AMARE: 40
[20]; 250 g ai/ha
  phytotoxicity rating AMARE: 50
[21]; 63 g ai/ha
  phytotoxicity rating CASOB: 10
[21]; 250 g ai/ha
  phytotoxicity rating CASOB: 30
[22]; 63 g ai/ha
  phytotoxicity rating ABUTH: 100
[22]; 250 g ai/ha
  phytotoxicity rating ABUTH: 100
[23]; 63 g ai/ha
  phytotoxicity rating CORN: 0
[23]; 250 g ai/ha
  phytotoxicity rating CORN: 0
[24]; 63 g ai/ha
  phytotoxicity rating RICE: 0
[24]; 250 g ai/ha
  phytotoxicity rating RICE: 0

## COc1c(Cl)cc(F)c(-n2c(=O)cc(C(F)(F)F)n(N)c2=O)c1NC(=O)c1ccc(F)cc1F [2-44]
[1]; 63 g ai/ha
  Pre-emerge Herbicidal Activity, phytotoxicity rating (0-100), AMARE: 100
[1]; 250 g ai/ha
  Pre-emerge Herbicidal Activity, phytotoxicity rating (0-100), AMARE: 100
[2]; 63 g ai/ha
  Pre-emerge Herbicidal Activity, phytotoxicity rating (0-100), ECHCG: 30
[2]; 250 g ai/ha
  Pre-emerge Herbicidal Activity, phytotoxicity rating (0-100), ECHCG: 99
[3]; 63 g ai/ha
  Pre-emerge Herbicidal Activity, phytotoxicity rating (0-100), AMBEL: 100
[3]; 250 g ai/ha
  Pre-emerge Herbicidal Activity, phytotoxicity rating (0-100), AMBEL: 100
[4]; 63 g ai/ha
  Pre-emerge Herbicidal Activity, phytotoxicity rating (0-100), SETVI: 90
[4]; 250 g ai/ha
  Pre-emerge Herbicidal Activity, phytotoxicity rating (0-100), SETVI: 100
[5]; 63 g ai/ha
  Pre-emerge Herbicidal Activity, phytotoxicity rating (0-100), IPOHE: 90
[5]; 250 g ai/ha
  Pre-emerge Herbicidal Activity, phytotoxicity rating (0-100), IPOHE: 100
[6]; 63 g ai/ha
  Pre-emerge Herbicidal Activity, phytotoxicity rating (0-100), SORHA: 50
[6]; 250 g ai/ha
  Pre-emerge Herbicidal Activity, phytotoxicity rating (0-100), SORHA: 95
[7]; 63 g ai/ha
  Pre-emerge Herbicidal Activity, phytotoxicity rating (0-100), CHEAL: 100
[7]; 250 g ai/ha
  Pre-emerge Herbicidal Activity, phytotoxicity rating (0-100), CHEAL: 100
[8]; 63 g ai/ha
  Pre-emerge Herbicidal Activity, phytotoxicity rating (0-100), DIGSA: 60
[8]; 250 g ai/ha
  Pre-emerge Herbicidal Activity, phytotoxicity rating (0-100), DIGSA: 100
[9]; 63 g ai/ha
  Pre-emerge Herbicidal Activity, phytotoxicity rating (0-100), CASOB: 60
[9]; 250 g ai/ha
  Pre-emerge Herbicidal Activity, phytotoxicity rating (0-100), CASOB: 100
[10]; 63 g ai/ha
  Pre-emerge Herbicidal Activity, phytotoxicity rating (0-100), ABUTH: 100
[10]; 250 g ai/ha
  Pre-emerge Herbicidal Activity, phytotoxicity rating (0-100), ABUTH: 100
[11]; 63 g ai/ha
  Pre-emerge phytotoxicity rating (0-100), crop damage, CORN: 10
[11]; 250 g ai/ha
  Pre-emerge phytotoxicity rating (0-100), crop damage, CORN: 70
[12]; 63 g ai/ha
  Pre-emerge phytotoxicity rating (0-100), crop damage, RICE: 20
[12]; 250 g ai/ha
  Pre-emerge phytotoxicity rating (0-100), crop damage, RICE: 80
[13]; 63 g ai/ha
  phytotoxicity rating ECHCG: 0
[13]; 250 g ai/ha
  phytotoxicity rating ECHCG: 10
[14]; 63 g ai/ha
  phytotoxicity rating AMBEL: 60
[14]; 250 g ai/ha
  phytotoxicity rating AMBEL: 90
[15]; 63 g ai/ha
  phytotoxicity rating SETVI: 0
[15]; 250 g ai/ha
  phytotoxicity rating SETVI: 50
[16]; 63 g ai/ha
  phytotoxicity rating IPOHE: 50
[16]; 250 g ai/ha
  phytotoxicity rating IPOHE: 100
[17]; 63 g ai/ha
  phytotoxicity rating SORHA: 0
[17]; 250 g ai/ha
  phytotoxicity rating SORHA: 30
[18]; 63 g ai/ha
  phytotoxicity rating CHEAL: 60
[18]; 250 g ai/ha
  phytotoxicity rating CHEAL: 90
[19]; 63 g ai/ha
  phytotoxicity rating DIGSA: 0
[19]; 250 g ai/ha
  phytotoxicity rating DIGSA: 10
[20]; 63 g ai/ha
  phytotoxicity rating AMARE: 50
[20]; 250 g ai/ha
  phytotoxicity rating AMARE: 90
[21]; 63 g ai/ha
  phytotoxicity rating CASOB: 20
[21]; 250 g ai/ha
  phytotoxicity rating CASOB: 70
[22]; 63 g ai/ha
  phytotoxicity rating ABUTH: 100
[22]; 250 g ai/ha
  phytotoxicity rating ABUTH: 100
[23]; 63 g ai/ha
  phytotoxicity rating CORN: 0
[23]; 250 g ai/ha
  phytotoxicity rating CORN: 20
[24]; 63 g ai/ha
  phytotoxicity rating RICE: 0
[24]; 250 g ai/ha
  phytotoxicity rating RICE: 10
